“And” between values parts separate entries of the source, which are not always exact repeats. Equal entries are not always repeated.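 All cell lines were grown in 96-well plates and treated with compound for 48 hours. At the GI50, growth is halved. TGI: concentration producing complete growth inhibition.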 Where a SMILES comes first, the peptide text is derived from it. [ ]: non-standard residue; d: D form. The star is where a group is joined. ξ: configuration not given here. X6 = FC(F)(F)c1cc(NC(=S)*)cc(C(F)(F)F)c1; ξF = NC(Cc1ccccc1)C(=O)O Bounds are passed on as bounds.

The first assay deals with RPMI-8226 leukemia. The assay is described as follows: NCI anticancer screen, dose series, 48 h.
As for `C=C1C(=O)C23CC1CCC2C12CO[C@@H]4OCC(C)(CC[C@@H]1OC3=O)C42` (stereo partly specified), the TGI amounted to 19 µM.

The test system of another assay is OVCAR-4 ovarian. The assay is described as follows: NCI anticancer screen, dose series, 48 h.
On to `CCOC(=O)[C@]1(OC(C)=O)C[C@H](OC(C)=O)[C@@H](C(F)COP(=O)(OCc2ccccc2)OCc2ccccc2)O1` (stereo partly specified), for which the GI50 is 18 µM and > 100 µM; the TGI was 39 µM and > 100 µM.

In the case of `CC[C@@]1(O)C[C@H](OC2CC(N(C)C)C(O)C(C)O2)c2c(O)c3c(c(O)c2[C@H]1OC1CC(N(C)C)C(O)C(C)O1)C(=O)c1cccc(O)c1C3=O` (stereo partly specified), the GI50 was below 0.01 µM; the TGI was 0.601 µM and 0.147 µM.

Take `CC(C)=CC(=O)C1c2cccc(O)c2C(=O)c2c(O)cc(C)cc21` (stereo unspecified): the TGI was 4.52 µM.

`O=C(O)CCc1coc2ccc(O)cc12` registered a TGI above 100 µM.

Regarding `O=C(Nc1ccccc1)NS(=O)(=O)c1ccc(-n2nc3c(c2-c2cccs2)Cc2ccccc2-3)cc1`, the GI50 is 34.9 µM and the TGI is above 100 µM.

Regarding `CCCCCN(CCCCC)CC(O)c1cc(C)c2ccc3cc(C(C)C)ccc3c2c1` (stereo unspecified), the GI50 was 1.92 µM and the TGI was determined as 3.75 µM.

For `CC(C)CCC[C@@H](C)[C@H]1CC[C@H]2[C@@H]3CC=C4C[C@@H](C(C(=O)O)C(=O)O)CC[C@]4(C)[C@H]3CC[C@]12C`, the GI50 is 0.207 µM and the TGI turned out to be 4.35 µM.

For the compound `COc1ccc(-c2nc3sccn3c2/C(N)=N/C(=N)N)cc1OC`, the GI50 was above 100 µM and the TGI is above 100 µM.

Consider `CC1=C(C(=O)Nc2ccc(Cl)c(Cl)c2)C(c2cccc(Oc3ccccc3)c2)NC(=S)N1` (stereo unspecified), for which the GI50 is 7.56 µM and the TGI turned out to be 16.5 µM.

The compound `Nc1ccccc1SC(C[N+](=O)[O-])c1ccc2c(c1)OCO2` (stereo unspecified) came in with a TGI of 23.8 µM.

In the case of `O=C(/C=C/c1ccccc1)NC1C=Nc2ccc(Cl)cc2NC1=O` (stereo unspecified), the TGI was above 100 µM.

Regarding `COC(=O)[C@@H](NC(=O)CNC(=O)[C@H]1CCCN1C(=O)C(Cc1ccccc1)NC(=S)Nc1cc(C(F)(F)F)cc(C(F)(F)F)c1)C(C)C` (stereo partly specified) (X6-[ξF][dP]GV-OMe), the GI50 is 3.17 µM and the TGI was determined as 17.6 µM.

In turn, `COC1CCC2C(NS(=O)(=O)c3ccc(C)cc3)CCCC2O1` (stereo unspecified) (tested in a mixture with another compound) registered a TGI above 34.5 µM.

As for `CN(C)C(=N)c1ccccc1`, the TGI was above 100 µM.

With `NNC(=O)Nc1cccnc1`, the TGI was above 100 µM.

`CC1=C(C(=O)NCc2ccccc2)C(/C=C/c2ccccc2)C(C(=O)NCc2ccccc2)=C(C)N1` came in with a TGI above 100 µM.

A further assay concerns LOX IMVI melanoma. The experiment in a line: NCI anticancer screen, dose series, 48 h.
For the compound `CCOC(=O)[C@]1(OC(C)=O)C[C@H](OC(C)=O)[C@@H](C(F)COP(=O)(OCc2ccccc2)OCc2ccccc2)O1` (stereo partly specified), the GI50 was 29.4 µM and > 100 µM; the TGI was above 100 µM.

Consider `O=C(O)c1ccccc1[Se][Se]c1ccccc1C(=O)O`, for which the TGI was determined as 76.1 µM.

`CC[C@@]1(O)C[C@H](OC2CC(N(C)C)C(O)C(C)O2)c2c(O)c3c(c(O)c2[C@H]1OC1CC(N(C)C)C(O)C(C)O1)C(=O)c1cccc(O)c1C3=O` (stereo partly specified) gave a TGI of 0.0923 µM.

Consider `CC(C)=CC(=O)C1c2cccc(O)c2C(=O)c2c(O)cc(C)cc21` (stereo unspecified), for which the TGI is 3.74 µM.

Turning to `O=C(O)CCc1coc2ccc(O)cc12`, the TGI was above 100 µM.

Consider `O=C(Nc1ccccc1)NS(=O)(=O)c1ccc(-n2nc3c(c2-c2cccs2)Cc2ccccc2-3)cc1`, for which the GI50 was 12 µM and the TGI is 33.6 µM.

For `CCCCCN(CCCCC)CC(O)c1cc(C)c2ccc3cc(C(C)C)ccc3c2c1` (stereo unspecified), the GI50 is 1.76 µM and the TGI was found to be 3.28 µM.

On to `CC(C)CCC[C@@H](C)[C@H]1CC[C@H]2[C@@H]3CC=C4C[C@@H](C(C(=O)O)C(=O)O)CC[C@]4(C)[C@H]3CC[C@]12C`, for which the GI50 was 0.139 µM and the TGI was 0.468 µM.

`CC(C)C/C(CC(=O)CCC(=O)Nc1ccccc1[N+](=O)[O-])=N\NC(=O)c1cc2ccccc2cc1O` yielded a TGI of 79 µM.

In the case of `COc1ccc(-c2nc3sccn3c2/C(N)=N/C(=N)N)cc1OC`, the GI50 is 37.5 µM and the TGI was above 100 µM.

For the compound `CC1=C(C(=O)Nc2ccc(Cl)c(Cl)c2)C(c2cccc(Oc3ccccc3)c2)NC(=S)N1` (stereo unspecified), the GI50 is 7.48 µM and the TGI amounted to 14.7 µM.

`Nc1ccccc1SC(C[N+](=O)[O-])c1ccc2c(c1)OCO2` (stereo unspecified): the TGI was determined as 3.68 µM.

On to `O=C(/C=C/c1ccccc1)NC1C=Nc2ccc(Cl)cc2NC1=O` (stereo unspecified), for which the TGI worked out at 55.9 µM.

As to `COC(=O)[C@@H](NC(=O)CNC(=O)[C@H]1CCCN1C(=O)C(Cc1ccccc1)NC(=S)Nc1cc(C(F)(F)F)cc(C(F)(F)F)c1)C(C)C` (stereo partly specified) (X6-[ξF][dP]GV-OMe), the GI50 is 2.25 µM and the TGI was 5.55 µM.

Consider `COc1cc(Cc2cnc(/N=C3\C(=O)N(CN4CCN(c5c(F)cc6c(=O)c(C(=O)O)cn(C7CC7)c6c5OC)CC4C)c4ccc(F)cc43)nc2N)cc(OC)c1OC` (stereo unspecified), for which the GI50 was 2.38 µM and the TGI was 4.74 µM.

For `COC1CCC2C(NS(=O)(=O)c3ccc(C)cc3)CCCC2O1` (stereo unspecified) (tested in a mixture with another compound), the TGI is 13 µM.

`CN(C)C(=N)c1ccccc1` displayed a TGI above 100 µM.

As to `NNC(=O)Nc1cccnc1`, the TGI was above 100 µM.

Take `CC1=C(C(=O)NCc2ccccc2)C(/C=C/c2ccccc2)C(C(=O)NCc2ccccc2)=C(C)N1`: the TGI was above 100 µM.

Compound `C=C1C(=O)C23CC1CCC2C12CO[C@@H]4OCC(C)(CC[C@@H]1OC3=O)C42` (stereo partly specified) had a TGI of 3.44 µM.

A further assay has as its system OVCAR-3 ovarian. The experiment in a line: NCI anticancer screen, dose series, 48 h.
For the compound `CCOC(=O)[C@]1(OC(C)=O)C[C@H](OC(C)=O)[C@@H](C(F)COP(=O)(OCc2ccccc2)OCc2ccccc2)O1` (stereo partly specified), the GI50 is 29.6 µM and > 100 µM; the TGI is 79.4 µM and > 100 µM.

As to `O=C(O)c1ccccc1[Se][Se]c1ccccc1C(=O)O`, the TGI is above 100 µM.

Turning to `CC[C@@]1(O)C[C@H](OC2CC(N(C)C)C(O)C(C)O2)c2c(O)c3c(c(O)c2[C@H]1OC1CC(N(C)C)C(O)C(C)O1)C(=O)c1cccc(O)c1C3=O` (stereo partly specified), the GI50 is below 0.01 µM and the TGI was below 0.01 µM.

In turn, `CC(C)=CC(=O)C1c2cccc(O)c2C(=O)c2c(O)cc(C)cc21` (stereo unspecified) returned a TGI of 3.7 µM.

On to `O=C(O)CCc1coc2ccc(O)cc12`, for which the TGI is above 100 µM.

Turning to `O=C(Nc1ccccc1)NS(=O)(=O)c1ccc(-n2nc3c(c2-c2cccs2)Cc2ccccc2-3)cc1`, the GI50 is 21.8 µM and the TGI is above 100 µM.

Regarding `CCCCCN(CCCCC)CC(O)c1cc(C)c2ccc3cc(C(C)C)ccc3c2c1` (stereo unspecified), the GI50 is 1.92 µM and the TGI amounted to 3.41 µM.

As for `CC(C)CCC[C@@H](C)[C@H]1CC[C@H]2[C@@H]3CC=C4C[C@@H](C(C(=O)O)C(=O)O)CC[C@]4(C)[C@H]3CC[C@]12C`, the GI50 is 0.121 µM and the TGI is 0.298 µM.

The values above are taken from PubChem BioAssay (NCI).
